This experiment concerns the target Glucagon-like peptide 1 receptor (Homo sapiens, UniProt P43220). Put plainly: Agonist activity at human GLP-1R expressed in CHO-K1 cells assessed as increase in cAMP level incubated for 30 mins. The experiment is classed as functional, cell-based.

Where a SMILES comes first, the peptide text is derived from it. Bridges are numbered along the chain shown (N, C = ends). [ ]: non-standard residue; d: D form. Bip(2'-Et-4'-OMe) = CCc1cc(OC)ccc1-c1ccc(C[C@H](N)C(=O)O)cc1; αMePhe(2,6-F2) = C[C@](N)(Cc1c(F)cccc1F)C(=O)O; hhPhe = N[C@@H](CCCc1ccccc1)C(=O)O; Aib = CC(C)(N)C(=O)O

Chain of Glucagon-like peptide 1 receptor (P43220 whole entry): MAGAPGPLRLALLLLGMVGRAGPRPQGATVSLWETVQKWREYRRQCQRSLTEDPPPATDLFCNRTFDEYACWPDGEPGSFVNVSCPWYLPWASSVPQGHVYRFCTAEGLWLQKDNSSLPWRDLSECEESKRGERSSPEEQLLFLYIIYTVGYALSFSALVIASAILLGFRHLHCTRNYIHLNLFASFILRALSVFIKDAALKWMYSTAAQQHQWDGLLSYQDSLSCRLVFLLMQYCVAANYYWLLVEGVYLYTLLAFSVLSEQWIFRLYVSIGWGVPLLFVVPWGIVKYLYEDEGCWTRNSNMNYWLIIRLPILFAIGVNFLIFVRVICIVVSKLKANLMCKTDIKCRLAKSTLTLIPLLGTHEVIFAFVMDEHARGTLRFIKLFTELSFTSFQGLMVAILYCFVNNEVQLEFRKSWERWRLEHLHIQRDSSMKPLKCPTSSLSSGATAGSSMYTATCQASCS

For `CCc1cc(OC)ccc1-c1ccc(C[C@@H]2NC(=O)[C@H](CC(=O)O)NC(=O)[C@H](CO)NC(=O)[C@H]([C@@H](C)O)NC(=O)[C@H](Cc3ccccc3)NC(=O)[C@H]([C@@H](C)O)NC(=O)CNC(=O)[C@H](CCC(=O)O)NC(=O)[C@@H]3CCCN3C(=O)[C@H](Cc3cnc[nH]3)NC(=O)[C@H](CO)NC(=O)[C@@H]3CSSC[C@H](NC(=O)[C@H](CCCc4ccccc4)NC2=O)C(=O)NCC(=O)NCC(=O)N[C@@H](C)C(=O)N[C@@H](C)C(=O)NCC(=O)NCC(=O)NCC(=O)N[C@@H](C)C(=O)N3)cc1` (cyclo(AAGGGACSHPEGTFTSD[Bip(2'-Et-4'-OMe)][hhPhe]CGG); disulfide 7-20), the EC50 was found to be 390 nM. Next, `CCc1cc(OC)ccc1-c1ccc(C[C@@H]2NC(=O)[C@H](CC(=O)O)NC(=O)[C@H](CO)NC(=O)[C@H]([C@@H](C)O)NC(=O)[C@](C)(Cc3c(F)cccc3F)NC(=O)[C@H]([C@@H](C)O)NC(=O)CNC(=O)[C@H](CCC(=O)O)NC(=O)C(C)(C)NC(=O)[C@H](Cc3cnc[nH]3)NC(=O)[C@H](CO)NC(=O)[C@@H]3CSSC[C@H](NC(=O)[C@H](CCCc4ccccc4)NC2=O)C(=O)NCC(=O)NCC(=O)N[C@@H](C)C(=O)N[C@@H](C)C(=O)NCC(=O)NCC(=O)NCC(=O)N[C@@H](C)C(=O)N3)cc1` (cyclo(AAGGGACSH[Aib]EGT[αMePhe(2,6-F2)]TSD[Bip(2'-Et-4'-OMe)][hhPhe]CGG); disulfide 7-20): 1400 nM.

(Values after ChEMBL document CHEMBL3632477 (2015).)
